Experimental findings from US9492471B2, “Methods of treating a disease or disorder associated with Bruton'S Tyrosine Kinase” (Celgene Avilomics Research, Inc., priority 2013, dated 2016) are described below.

Common to all, as to assay: HotSpot kinase profiling
Format in all cases: biochemical

For one assay, the target named is T1, CK1g2 (Homo sapiens, UniProt P78368).
T1 construct: purchased Reaction Biology Corp
The procedure:
(§1) The binding assay system for profiling kinase activity were based upon HotSpot technology (Reaction Biology Corp.; Malvern, Pa., USA) and utilized radio-isotope-based P81 filtration. […] Substrates for the various kinases tested against Compound 2 (substrate information available on the Reaction Biology Corp. website) were prepared fresh daily in Reaction Buffer. Any required cofactors were then added to the substrate solution. The identification and selection of the appropriate cofactor for each kinase is within the ability of a person skilled in the art. See, for example, Handbook of Assay Development in Drug Discovery, Ed. Lisa K. Minor, 2006: CRC Press, Boca Raton, Fla.; Gao et al., “A broad activity screen in support of a chemogenomic map for kinase signalling research and drug discovery,” Biochem J. 2013, 451(2): 313-28; and Eglen et al., “Drug discovery and the human kinome: Recent trends,” Pharmacology & Therapeutics 2011, 130(2): 144-156. The kinase was then added to the substrate solution and gently mixed. […] This was followed by incubation at room temperature for 2 h. The reaction was terminated and any unreacted phosphate was washed away using 0.1% phosphoric acid prior to detection utilizing a proprietary technology. […] DMSO was used as the negative control.
(§2) Percent inhibition was expressed as an average where the assay was performed more than once, e.g., in duplicate.

The target in a further assay is T2, DCAMKL2 (Homo sapiens, UniProt Q8N568).
T2 construct: purchased Reaction Biology Corp
T2 sequence (Q8N568 1-766): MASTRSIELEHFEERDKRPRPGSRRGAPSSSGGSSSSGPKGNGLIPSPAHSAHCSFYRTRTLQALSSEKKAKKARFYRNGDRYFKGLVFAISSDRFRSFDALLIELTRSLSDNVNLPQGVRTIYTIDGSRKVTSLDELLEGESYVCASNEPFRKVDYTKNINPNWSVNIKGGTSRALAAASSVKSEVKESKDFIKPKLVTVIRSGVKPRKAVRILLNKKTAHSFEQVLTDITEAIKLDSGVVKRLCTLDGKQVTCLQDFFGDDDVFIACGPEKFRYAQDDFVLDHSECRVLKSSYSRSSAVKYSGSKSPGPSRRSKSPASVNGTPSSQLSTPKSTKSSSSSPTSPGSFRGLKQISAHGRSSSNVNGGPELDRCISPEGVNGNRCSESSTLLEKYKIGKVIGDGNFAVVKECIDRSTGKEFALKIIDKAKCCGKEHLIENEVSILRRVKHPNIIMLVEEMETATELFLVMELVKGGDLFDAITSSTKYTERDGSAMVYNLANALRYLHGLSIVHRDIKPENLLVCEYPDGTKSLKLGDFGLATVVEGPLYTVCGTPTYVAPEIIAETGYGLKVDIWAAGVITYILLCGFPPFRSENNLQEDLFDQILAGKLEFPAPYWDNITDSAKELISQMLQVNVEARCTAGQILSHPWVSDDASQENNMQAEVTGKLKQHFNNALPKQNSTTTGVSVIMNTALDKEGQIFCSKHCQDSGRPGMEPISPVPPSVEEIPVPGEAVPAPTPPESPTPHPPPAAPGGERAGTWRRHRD
The procedure:
as §1, §2

For a further assay, the target named is T3, EPHA3 (Homo sapiens, UniProt P29320).
T3 construct: purchased Reaction Biology Corp
T3 sequence (P29320 21-983): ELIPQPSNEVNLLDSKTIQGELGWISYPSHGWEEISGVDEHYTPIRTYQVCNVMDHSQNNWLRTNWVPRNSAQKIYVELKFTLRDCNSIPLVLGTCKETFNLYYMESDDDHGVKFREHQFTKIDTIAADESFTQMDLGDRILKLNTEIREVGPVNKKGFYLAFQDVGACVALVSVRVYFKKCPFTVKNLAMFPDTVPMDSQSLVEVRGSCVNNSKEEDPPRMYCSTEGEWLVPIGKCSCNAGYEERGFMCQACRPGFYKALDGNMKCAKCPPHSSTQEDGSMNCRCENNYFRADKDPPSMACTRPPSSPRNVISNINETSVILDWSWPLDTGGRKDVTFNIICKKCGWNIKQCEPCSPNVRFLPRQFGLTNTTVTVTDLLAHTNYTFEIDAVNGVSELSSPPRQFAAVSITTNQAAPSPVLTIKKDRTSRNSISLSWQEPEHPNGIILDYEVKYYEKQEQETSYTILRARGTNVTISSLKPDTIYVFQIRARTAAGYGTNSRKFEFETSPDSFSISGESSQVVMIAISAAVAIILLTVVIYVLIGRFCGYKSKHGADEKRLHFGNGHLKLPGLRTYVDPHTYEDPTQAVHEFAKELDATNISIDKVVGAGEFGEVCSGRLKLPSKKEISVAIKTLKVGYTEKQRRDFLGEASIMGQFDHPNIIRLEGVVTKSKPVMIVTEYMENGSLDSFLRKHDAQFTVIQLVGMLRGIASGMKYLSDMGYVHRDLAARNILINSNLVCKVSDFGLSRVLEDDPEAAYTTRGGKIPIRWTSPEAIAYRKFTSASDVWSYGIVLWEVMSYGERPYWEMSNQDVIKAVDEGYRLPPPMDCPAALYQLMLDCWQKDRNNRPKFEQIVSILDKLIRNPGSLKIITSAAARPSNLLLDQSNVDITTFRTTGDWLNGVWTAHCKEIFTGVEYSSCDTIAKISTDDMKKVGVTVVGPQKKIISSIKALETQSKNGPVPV
The procedure:
as §1, §2

For a further assay, the target named is T4, MSSK1/STK23 (Homo sapiens, UniProt Q9UPE1).
T4 construct: purchased Reaction Biology Corp
T4 sequence (Q9UPE1 whole entry): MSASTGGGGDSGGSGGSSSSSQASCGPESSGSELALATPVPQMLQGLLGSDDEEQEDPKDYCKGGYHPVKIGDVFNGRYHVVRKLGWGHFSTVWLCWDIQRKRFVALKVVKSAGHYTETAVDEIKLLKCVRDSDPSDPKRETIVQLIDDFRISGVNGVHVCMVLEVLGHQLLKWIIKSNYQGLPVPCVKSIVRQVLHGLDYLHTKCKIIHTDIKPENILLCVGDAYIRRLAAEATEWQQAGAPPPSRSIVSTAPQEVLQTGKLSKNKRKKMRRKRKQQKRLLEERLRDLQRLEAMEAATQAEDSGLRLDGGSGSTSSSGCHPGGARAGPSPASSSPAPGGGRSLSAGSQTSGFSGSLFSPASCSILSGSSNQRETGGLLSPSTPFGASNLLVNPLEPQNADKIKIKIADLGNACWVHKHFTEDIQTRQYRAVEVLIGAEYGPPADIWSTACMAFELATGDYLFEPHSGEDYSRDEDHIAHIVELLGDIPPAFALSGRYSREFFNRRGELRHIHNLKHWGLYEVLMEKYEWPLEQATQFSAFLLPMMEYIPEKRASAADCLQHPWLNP
The protocol:
as §1, §2

Where [1] appears, read: read-out: % Enzyme Activity (relative to DMSO controls) Run 1.
The mark [2] stands for this setting: read-out: % Enzyme Activity (relative to DMSO controls) Run 2.

Like-named read-outs stand apart in the source and are kept apart here.

T1 sequence (P78368 whole entry): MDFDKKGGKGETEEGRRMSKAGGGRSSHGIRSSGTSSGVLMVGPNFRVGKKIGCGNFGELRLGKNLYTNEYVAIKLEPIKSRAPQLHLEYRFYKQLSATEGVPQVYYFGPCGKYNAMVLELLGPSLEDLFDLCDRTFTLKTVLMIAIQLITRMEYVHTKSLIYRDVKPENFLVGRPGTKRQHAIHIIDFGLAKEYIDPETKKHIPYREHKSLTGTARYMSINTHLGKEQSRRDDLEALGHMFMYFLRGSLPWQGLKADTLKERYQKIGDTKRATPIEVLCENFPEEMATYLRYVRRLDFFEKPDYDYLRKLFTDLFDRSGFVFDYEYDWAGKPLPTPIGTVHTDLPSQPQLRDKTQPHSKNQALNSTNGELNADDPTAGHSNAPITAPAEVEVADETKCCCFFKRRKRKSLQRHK

With `C=CC(=O)Nc1cccc(Nc2nc(Nc3ccc(OCCOC)c(F)c3)ncc2F)c1` [Compound 2], the inhibition at 3 µM on CK1g2 is 12.6%; against DCAMKL2, 0.18%; on EPHA3 it was 1.81%; on MSSK1/STK23, -6.62%. Also, the remaining activity at 3 µM at CK1g2 (setting [1]) was 89.1%; at CK1g2 (setting [2]), 85.7%; at DCAMKL2 (setting [1]), 100%; on DCAMKL2 (setting [2]), 99.5%; at EPHA3 (setting [1]), 96.2%; on EPHA3 (setting [2]) it was 100%. Besides, the remaining activity at 3 µM on MSSK1/STK23 (setting [1]) worked out at 108%; at MSSK1/STK23 (setting [2]), 105%.
